Entries after “also recorded” stand apart in the source; their conditions may differ.
Tests used:
Type in all cases: cell-based
[1] = system: TGFbeta cellular signaling pathway; assay: AR inhibitor experiment in LPS-stimulated monocytes (THP1), TGFbeta pathway activity; settings: THP1 monocytes cultured 24 hours with or without LPS, then with or without DHT
Experimental: (§1) FIG. 35 Schematic overview of AR inhibitor experiment. Depicts the experimental setup to determine if AR inhibitors can be used to mitigate the effect of LPS on monocytes (THP1 cells). In brief, monocyte cells (THP1) are cultured for 24 hours with or without LPS, after which the medium is changed and both conditions are subsequently cultured with or without DHT. Both LPS and DHT are anticipated to activate the AR cellular signaling pathway. In a parallel experiment, THP1 cells are first cultured for 24 hours with LPS, after which the medium is changed and the cells are cultured with one of ARCC-4, ARD-266, A-458 and bicalutamide.
as §1, with “describes” for “Schematic overview of AR inhibitor experiment. Depicts”, “set-up used.” for “setup to determine if AR inhibitors can be used to mitigate the effect of LPS on monocytes (THP1 cells).”
(§2) All experimental conditions were subjected to cellular signaling pathways analysis.

[2] = system: HH (Hedgehog) cellular signaling pathway; assay: AR inhibitor experiment in LPS-stimulated monocytes (THP1), HH pathway activity; settings: THP1 monocytes cultured 24 hours with or without LPS, then with or without DHT
Experimental: as §1
as §1, with “describes” for “Schematic overview of AR inhibitor experiment. Depicts”, “set-up used.” for “setup to determine if AR inhibitors can be used to mitigate the effect of LPS on monocytes (THP1 cells).”
as §2

[3] = system: ER cellular signaling pathway; assay: AR inhibitor experiment in LPS-stimulated monocytes (THP1), ER pathway activity; settings: THP1 monocytes cultured 24 hours with or without LPS, then with or without DHT
Experimental: as §1
as §1, with “describes” for “Schematic overview of AR inhibitor experiment. Depicts”, “set-up used.” for “setup to determine if AR inhibitors can be used to mitigate the effect of LPS on monocytes (THP1 cells).”
as §2

[4] = system: AR cellular signaling pathway; assay: AR inhibitor experiment in LPS-stimulated monocytes (THP1), AR pathway activity; settings: THP1 monocytes cultured 24 hours with or without LPS, then with or without DHT
Experimental: as §1
as §1, with “describes” for “Schematic overview of AR inhibitor experiment. Depicts”, “set-up used.” for “setup to determine if AR inhibitors can be used to mitigate the effect of LPS on monocytes (THP1 cells).”
as §2

[5] = system: FOXO pathway; assay: LPS stimulation of THP-1 cells, FOXO pathway activity; settings: LPS from E. coli 10, 50, 100 ng/ml, 24 hours, vs control
Experimental: (§3) To study the inflammation process we stimulated the monocytic THP-1 cells (ATCC® TIB-202™) using 3 different concentrations of LPS originated from E. coli ([…], 10 ng/ml, 50 ng/ml and 100 ng/ml) into culture medium (DMEM, supplemented with 10% FBS, 1% glutamax and 1% pen strep at 37° C. 5% CO2.) of THP-1 for 24 hours. After stimulation cells were harvested and RNA was extracted using the RNeasy mini kit (Qiagen, 74104). qPCR was performed using the Philips Research OncoSignal platform. […] The activation of the AR and TGFBeta pathways was also seen in sepsis samples confirms the role of these pathways in inflammation.

[6] = system: TGFBeta pathway; assay: LPS stimulation of THP-1 cells, TGFBeta pathway activity; settings: LPS from E. coli 10, 50, 100 ng/ml, 24 hours, vs control
Experimental: as §3

[7] = system: AR pathway; assay: LPS stimulation of THP-1 cells, AR pathway activity (qPCR OncoSignal); settings: LPS from E. coli 10, 50, 100 ng/ml, 24 hours, vs control
Experimental: as §3

[8] = system: WNT pathway; assay: LPS stimulation of THP-1 cells, WNT pathway activity; settings: LPS from E. coli 10, 50, 100 ng/ml, 24 hours, vs control
Experimental: as §3

Molecule	TGFbeta cellular signaling pathway activity [1]	HH cellular signaling pathway activity [2]	ER cellular signaling pathway activity [3]	AR cellular signaling pathway activity [4]	FOXO pathway activity [5]	TGFBeta pathway activity [6]	AR pathway activity [7]	WNT pathway activity [8]
C[C@]12CCC(=O)C[C@@H]1CC[C@@H]1[C@@H]2CC[C@]2(C)[C@@H](O)CC[C@@H]12 [DHT]	did not increase	not substantially affected	not substantially affected	increase				
lipopolysaccharide [LPS]	increased	not substantially affected	not substantially affected	able to stimulate; also recorded: increase	increased	increased	increased	increased
